Like-named read-outs stand apart in the source and are kept apart here.
Assays:
[1] = tested on: 6 Hz (32 mA) seizures; test: 6 Hz (32 mA) psychomotor seizure model;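 further: adult male albino Swiss CD-1 mice, each used once, with compounds suspended in 1% Tween 80 in water as vehicle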
[2] = biological target: T1, human recombinant MAO-B (Homo sapiens, UniProt P27338); test: fluorometric monoamine oxidase B inhibition assay; format: biochemical; conditions: read-out: % inhibition MAO-B (1 µM), mean of two independent experiments
T1 construct: purchased Sigma Aldrich
T1 sequence (P27338 1-520): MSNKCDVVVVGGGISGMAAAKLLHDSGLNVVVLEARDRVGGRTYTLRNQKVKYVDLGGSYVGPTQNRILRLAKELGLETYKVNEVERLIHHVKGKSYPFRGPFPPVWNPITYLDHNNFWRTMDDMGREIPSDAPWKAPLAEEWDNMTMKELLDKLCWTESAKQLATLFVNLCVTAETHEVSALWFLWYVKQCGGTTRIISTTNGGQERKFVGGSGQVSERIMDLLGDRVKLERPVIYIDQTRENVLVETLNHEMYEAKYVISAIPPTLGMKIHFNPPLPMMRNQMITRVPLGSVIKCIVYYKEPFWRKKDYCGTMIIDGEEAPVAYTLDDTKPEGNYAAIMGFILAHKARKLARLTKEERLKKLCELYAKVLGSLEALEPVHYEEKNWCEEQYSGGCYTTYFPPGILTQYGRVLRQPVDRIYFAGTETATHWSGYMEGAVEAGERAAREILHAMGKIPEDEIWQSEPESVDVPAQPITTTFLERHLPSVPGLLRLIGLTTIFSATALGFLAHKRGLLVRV

[3] = tested on: Cav1.2 (L-type) (dihydropyridine site); test: radioligand binding Cav1.2 (L-type) dihydropyridine site; conditions: 100 µM, rat cerebral cortex
Protocol: (§1) Binding/functional studies were performed commercially in Cerep Laboratories (Poitiers, France) using testing procedures described elsewhere. The general information is listed in Table S3 in the Supporting Information.
Table S3. The general information of radioligand binding/functional assays.
Ca2+channel (L, dihydropyridine site) (antagonist radioligand) […]
(§2) Assays were performed commercially in Eurofins Cerep SA (Celle l’Evescault, France) and Eurofins
(§3) Panlabs Discovery Services Taiwan, Ltd. (New Taipei City, Taiwan), using procedures describe

[4] = tested on: Na+ channel (site 2); test: radioligand binding Na+ channel (site 2); conditions: 100 µM, rat cerebral cortex
Protocol: as §1
(§4) Table S3. The general information of radioligand binding/functional assays. […]
as §2, §3

[5] = biological target: T2, Cav2.2 N-type (Rattus norvegicus, UniProt P54290); test: radioligand binding Cav2.2 N-type; conditions: rat cerebral cortex, antagonist radioligand
T2 construct: Rat cerebral cortex; tissue Cerep Laboratories / Eurofins (contract assay); host or cells: rat cerebral cortex
Protocol: as §1, §4
N-type Ca2+ [3H] Gabapentin binding (antagonist radioligand) […]
as §2, §3

[6] = tested on: maximal electroshock (MES) seizures; test: maximal electroshock seizure (MES) test; format: in vivo, mice
Excerpt: Epilepsy is a multifaceted disorder with often unclear etiology, making it challenging to pinpoint a specific receptor or transporter as the definitive target. Consequently, the discovery of ASMs deviates from the traditional drug development pathway, which typically involves designing a new molecule, docking it with a specific biological target, and performing chemical synthesis, followed by in vitro assays. Instead, numerous animal seizure models, which mirror various types of human epileptic seizures, are initially employed in the process of new ASM discovery. This approach has been instrumental in the identification and introduction into clinical practice of all currently used ASMs and continues to be a cornerstone in the preclinical development of new anticonvulsants. The primary justification for prioritizing in vivo screening over in vitro binding and functional studies is the complex and often not fully elucidated mechanisms of action of known ASMs. This approach also facilitates the discovery of compounds with novel, previously undefined pharmacodynamic properties. In light of this, we evaluated all compounds obtained in the current studies using the MES test, which remains one of the most valuable preclinical screening models for tonic-clonic seizures, as well as partial convulsions with or without secondary generalization in humans. This test allows for a comprehensive assessment of the anticonvulsant efficacy of new ASM candidates and is considered highly relevant for predicting their therapeutic efficacy in human epilepsy. The MES test was carried out in mice following the intraperitoneal (i.p.) administration of a screening dose of 100 mg/kg in a group consisting of four animals. The efficacy of the compounds synthesized was evaluated at 0.5 h pretreatment time.
Fresh solutions were prepared daily for each experimentation session.
Each group consisted of six animals.

[7] = rotarod test (acute neurological toxicity, motor coordination); format: in vivo; conditions: male, CD-1 (albino Swiss), mouse, in vivo, ip, mice i.p.
Protocol: The protective indexes (PIs) were then calculated as the ratio of TD50 to ED50 (PI = TD50/ED50), providing an assessment of the therapeutic window for each compound.

T2 sequence (P54290 25-944 limits assumed): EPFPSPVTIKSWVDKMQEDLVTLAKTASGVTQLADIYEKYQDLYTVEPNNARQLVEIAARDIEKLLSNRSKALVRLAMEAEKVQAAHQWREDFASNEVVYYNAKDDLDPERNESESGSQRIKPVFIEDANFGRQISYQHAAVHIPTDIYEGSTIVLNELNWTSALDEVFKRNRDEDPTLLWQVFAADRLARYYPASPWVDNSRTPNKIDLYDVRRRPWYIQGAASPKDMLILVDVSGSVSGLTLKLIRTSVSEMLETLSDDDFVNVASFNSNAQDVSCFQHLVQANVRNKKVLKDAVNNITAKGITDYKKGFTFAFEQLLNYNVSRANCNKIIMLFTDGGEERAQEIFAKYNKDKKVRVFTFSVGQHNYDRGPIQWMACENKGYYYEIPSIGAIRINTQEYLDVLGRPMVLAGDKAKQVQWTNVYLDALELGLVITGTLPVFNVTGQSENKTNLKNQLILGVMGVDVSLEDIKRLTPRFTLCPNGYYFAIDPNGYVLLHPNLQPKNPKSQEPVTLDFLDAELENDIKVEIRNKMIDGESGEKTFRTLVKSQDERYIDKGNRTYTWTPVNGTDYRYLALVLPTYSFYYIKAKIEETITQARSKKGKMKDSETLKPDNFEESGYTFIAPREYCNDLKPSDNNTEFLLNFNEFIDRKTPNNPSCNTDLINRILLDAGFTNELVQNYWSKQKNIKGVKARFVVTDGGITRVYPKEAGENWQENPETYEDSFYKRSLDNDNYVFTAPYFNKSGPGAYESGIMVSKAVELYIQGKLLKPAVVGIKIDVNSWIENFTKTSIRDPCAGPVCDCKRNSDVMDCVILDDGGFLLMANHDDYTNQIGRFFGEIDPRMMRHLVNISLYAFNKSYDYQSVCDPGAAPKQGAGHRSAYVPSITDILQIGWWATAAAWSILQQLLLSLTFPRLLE
T2 sequence (P54290 945-1091 limits assumed): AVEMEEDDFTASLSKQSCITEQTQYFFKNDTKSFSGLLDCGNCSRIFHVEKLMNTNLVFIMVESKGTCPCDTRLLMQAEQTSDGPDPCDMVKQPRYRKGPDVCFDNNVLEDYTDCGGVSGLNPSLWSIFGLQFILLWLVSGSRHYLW

CC(C(=O)NCc1ccc(OCc2ccccc2)cc1)N1C(=O)CCC1=O (centres unmarked) [Compound 5, N-(4-(benzyloxy)benzyl)-2-(2,5-dioxopyrrolidin-1-yl)propanamide]
ED50 ([1]; Mus musculus, ip, 0.5 h, read-out: ED50 6 Hz (32 mA), mice i.p., TPE 0.5 h, 95% confidence interval in parentheses): 45.2 mg/kg
responders at 100 mg/kg ([1]; Mus musculus, ip, 0.5 h, read-out: protection (efficacy) in the 6 Hz (32 mA) screening): 50%
PI (TD50/ED50) 6 Hz ([1]; TD50 rotarod / ED50 6 Hz (32 mA)): > 6.6
ED50 6 Hz (32 mA) ([1]; mice i.p., TPE 0.5 h, 95% confidence interval in parentheses): 45.19 (37.31–54.73) mg/kg
inhibition at 1 µM [2]: 0%
% Inhibition of Control Specific Binding [3]: 82.3 (100) %
% Inhibition of Control Specific Binding [4]: 38.2 (100) %
% Inhibition of Control Specific Binding ([5]; 100 µM): no significant interaction
inhibition at 100 µM ([5]; read-out: % Inhibition of Control Specific Binding): 1.1%
responders at 100 mg/kg ([6]; Mus musculus, ip, mice i.p., 100 mg/kg, 0.5 h, four mice, read-out: protection (efficacy) in the MES screening): 100%
ED50 ([6]; Mus musculus, ip, mice i.p., TPE 0.5 h, 95% confidence interval in parentheses): 48 mg/kg
responders at 100 mg/kg ([6]; Mus musculus, ip, mice i.p., dose of 100 mg/kg, pretreatment time 0.5 h, read-out: MES test: number of mice protected / number of mice tested (converted)): 100%
PI (TD50/ED50) MES ([6]; TD50 rotarod / ED50 MES): > 6.3
TD50 at 0.5 h [7]: > 300 mg/kg

Reference: paper PMC11432405, “Development of Novel Alaninamide Derivatives with Anticonvulsant Activity and Favorable Safety Profiles in Animal Models” (International Journal of Molecular Sciences, 2024)
